Measured values from patent publication US20200246284A1 (Academia Sinica, priority 2015, published 2020).
Where “and” joins values, the source holds several entries; their conditions need not be identical. Identical values can stand only once. Like-named read-outs stand apart in the source and are kept apart here. Blank lines part the entries; values can stand above or below the compound they belong to.

Legend:
H647 = format: cell-based, human
[1] = tested on: nude mice bearing prostate 22Rv/HL2; conditions: mouse, in vivo; as to BASO: test concentration or dose not given here; as to EOS: test concentration or dose not given here; as to LYM: test concentration or dose not given here; as to MONO: test concentration or dose not given here; as to NEU: test concentration or dose not given here; as to PLT: test concentration or dose not given here
H1666 = format: cell-based, human
[2] = tested on: MRC5 fetal lung fibroblast; format: cell-based, human
H1373 = format: cell-based, human
CALU-1 = format: cell-based, human
H596 = format: cell-based, human
PC9 = format: cell-based, human
HCC827 = format: cell-based, human
EBC1 = format: cell-based, human
H520 = format: cell-based, human
A549 = format: cell-based, human
[3] = tested on: BEAS2B SV40 bronchial epithelium; format: cell-based, human
H1755 = format: cell-based, human
HCC364 = format: cell-based, human
H3255 = format: cell-based, human
[4] = tested on: IMR90 fetal lung myofibroblast; assay: Cytotoxicity normal tissue 72 hr; format: cell-based, human
[5] = tested on: 16HBE SV40+ bronchial epithelium; format: cell-based, human
[6] = tested on: Cord Blood CFC (CFU-GM, BFU-E, CFU-C); format: cell-based, human
SK-MES-1 = format: cell-based, human
H525 = format: cell-based, human
CALU-6 = format: cell-based, human
CALU-3 = format: cell-based, human
[7] = tested on: nude mice bearing prostate 22Rv/HL2; conditions: mouse, in vivo; remark: listed apart in the source; as to BASO: test concentration or dose not given here; as to EOS: test concentration or dose not given here; as to LYM: test concentration or dose not given here; as to MONO: test concentration or dose not given here; as to NEU: test concentration or dose not given here; as to PLT: test concentration or dose not given here
[8] = tested on: normal human, murine or primate cell and tissue types; assay: Cytotoxicity, panel of normal tissues (MTT, alamar blue); format: cell-based
H1650 = format: cell-based, human
H1975 = format: cell-based, human
H3122 = format: cell-based, human
H2228 = format: cell-based, human
HS27 adult BM stroma = format: cell-based, human
SK-LU-1 = format: cell-based, human
HCC15 = format: cell-based, human
[9] = tested on: nude mice bearing prostate 22Rv/HL2 tumor xenografts; conditions: mouse, in vivo
BMMSC BM mesenchyme = assay: Cytotoxicity normal tissue 72 hr; format: cell-based, human
H1781 = format: cell-based, human
PC1 (jap) = format: cell-based, human
H1395 = format: cell-based, human
HCC2450 = format: cell-based, human
H1703 = format: cell-based, human
SUDHL-5 = assay: Cytotoxicity DLBCL; conditions: read-out: cytotoxicity IC50; SUDHL-5, DLBCL GCB
Ly18 = assay: Cytotoxicity DLBCL; conditions: read-out: cytotoxicity IC50; LY18, DLBCL GCB
Karpas-422 = assay: Cytotoxicity DLBCL; conditions: read-out: cytotoxicity IC50; Karpas-422, DLBCL GCB
LY1 = assay: Cytotoxicity DLBCL; conditions: read-out: cytotoxicity IC50; LY1, DLBCL GCB
SUDHL-4 = assay: Cytotoxicity DLBCL; conditions: read-out: cytotoxicity IC50; SUDHL-4, DLBCL GCB
NECB-1 = assay: Cytotoxicity mantle cell lymphoma; conditions: read-out: cytotoxicity IC50; NECB-1, mantle cell lymphoma
REC-1 = assay: Combination with BO-1055, MCL (Tables 28, 29); format: cell-based, human; conditions: REC-1; combo-1 BO-1055 variable, combo-2 partner variable
Z-138 [10] = assay: Combination with BO-1055, MCL (Tables 28, 29); format: cell-based, human; conditions: Z-138; combo-1 BO-1055 variable, combo-2 partner variable
U2932 = assay: Cytotoxicity DLBCL; conditions: read-out: cytotoxicity IC50; U2932, DLBCL ABC
JEKO-1 = assay: Cytotoxicity mantle cell lymphoma
Granta-519 = assay: Cytotoxicity mantle cell lymphoma; conditions: read-out: cytotoxicity IC50; Granta-519, mantle cell lymphoma
[11] = tested on: spontaneous murine B-cell lymphoma; assay: Cytotoxicity, with or without MS5 stromal cells; conditions: read-out: cytotoxicity IC50; murine BCL, spontaneous NSG CD19+, no stromal support
Z-138 [12] = assay: Cytotoxicity mantle cell lymphoma; conditions: read-out: cytotoxicity IC50; Z-138, mantle cell lymphoma
Ly3 (OCI-LY3) = assay: Cytotoxicity DLBCL; conditions: read-out: cytotoxicity IC50; LY3, DLBCL ABC
DLBCL (GBC) cell lines = assay: Combination of BO-1055 with PUH71, TT46, bortezomib, doxorubicin (Table 25); format: cell-based; conditions: Homo sapiens, read-out: IC50 single agent
Mino [13] = assay: Combination with BO-1055, MCL (Tables 28, 29); format: cell-based, human; conditions: Mino; combo-1 BO-1055 variable, combo-2 partner variable
Toledo = assay: Cytotoxicity DLBCL; conditions: read-out: cytotoxicity IC50, DLBCL GCB
Mino [14] = assay: Cytotoxicity mantle cell lymphoma; conditions: read-out: cytotoxicity IC50; Mino, mantle cell lymphoma
SUDHL-6 = assay: Cytotoxicity DLBCL; conditions: read-out: cytotoxicity IC50; SUDHL-6, DLBCL GCB
Ly8 = assay: Cytotoxicity DLBCL; conditions: read-out: cytotoxicity IC50; LY8, DLBCL GCB
Granta = assay: Combination with BO-1055, MCL (Tables 28, 29); format: cell-based, human; conditions: Granta; combo-1 BO-1055 variable, combo-2 partner variable
NECB1 = assay: Combination with BO-1055, MCL (Tables 28, 29); format: cell-based, human; conditions: NECB1; combo-1 BO-1055 variable, combo-2 partner variable
HBL1 = assay: Cytotoxicity DLBCL; conditions: read-out: cytotoxicity IC50; HBL1, DLBCL ABC

Compound: N.N.O=C([O-])C1(C(=O)[O-])CCC1.[Pt+2] [Carboplatin]
IC50 (H647): 25.5 µM
BASO [1]: 0.03 10^3/μL
EOS [1]: 0.13 10^3/μL
LYM [1]: 0.60 10^3/μL
MONO [1]: 0.07 10^3/μL
NEU [1]: 1.13 10^3/μL
PLT [1]: 369 10^3/μL
RBC [1]: 9.37 10^6/μL
WBC [1]: 1.97 10^3/μL
IC50 (H1666): 90.7 µM
IC50 [2]: 210 µM
IC50 (H1373): 29.3 µM
IC50 (CALU-1): 96.2 µM
IC50 (H596): 34.1 µM
IC50 (PC9): 32.1 µM
IC50 (HCC827): 138 µM
IC50 (EBC1): 168 µM
IC50 (H520): 75.6 µM
IC50 (A549): 41.3 µM
IC50 [3]: 120 µM
IC50 (H1755): 41.4 µM
IC50 (HCC364): 172 µM
IC50 (H3255): 24.3 µM
IC50 [4]: 1000 µM
IC50 [5]: 35.5 µM
IC50 [6]: 1.7 µM
IC50 (SK-MES-1): 160 µM
IC50 (H525): 72.7 µM
IC50 (CALU-6): 14.7 µM
IC50 (CALU-3): 84.5 µM
ALT [7]: 64.85 U/L
AST [7]: 119.15 U/L
BUN [7]: 21.17 mg/dL
CREA [7]: 0.31 mg/dL
UA [7]: 1.97 mg/dL
IC50 [8]: ≥ 32.8 µM
IC50 (H1650): 69.7 µM
IC50 (H1975): 60.2 µM
IC50 (H3122): 109 µM
IC50 (H2228): 8.62 µM
IC50 (HS27 adult BM stroma): 35.3 µM
IC50 (SK-LU-1): 42.4 µM
IC50 (HCC15): 173 µM
pathological change in heart, liver, spleen, lung and kidney [9]: no apparent pathological change
IC50 (BMMSC BM mesenchyme): 32.8 µM
IC50 (H1781): 3.99 µM
IC50 (PC1 (jap)): 57.4 µM
IC50 (H1395): 17.4 µM
IC50 (HCC2450): 34.5 µM
IC50 (H1703): ≥ 80 µM

IC50 (DLBCL (GBC) cell lines; Farage): 0.785 µM
IC50 (DLBCL (GBC) cell lines; KARPAS-422, KARPAS-422): 1.52 µM
IC50 (DLBCL (GBC) cell lines; OCI-LY19, OCI-LY19): 0.221 µM
IC50 (DLBCL (GBC) cell lines; OCI-Ly8, OCI-LY8): 0.814 µM
IC50 (DLBCL (GBC) cell lines; OCI-Ly18, OCI-LY18): 0.274 µM
IC50 (DLBCL (GBC) cell lines; OCY-LY1): 0.208 µM
IC50 (DLBCL (GBC) cell lines; OCY-LY7): 0.391 µM
IC50 (DLBCL (GBC) cell lines; PFEIFER): 0.335 µM
IC50 (DLBCL (GBC) cell lines; SU-DHL-4, SUDHL4): 0.379 µM
IC50 (DLBCL (GBC) cell lines; SU-DHL-5, SUDHL5): 0.336 µM
IC50 (DLBCL (GBC) cell lines; SU-DHL-6, SUDHL6): 0.672 µM
IC50 (DLBCL (GBC) cell lines; Toledo): 10.9 µM
Compound: CC(C)NCCCn1c(Sc2cc3c(cc2I)OCO3)nc2c(N)ncnc21 [PUH71]
IC50 (SUDHL-5): 0.41 µM
IC50 (Ly18): 0.27 µM
IC50 (Karpas-422): 0.45 µM
IC50 (LY1): 0.26 µM and 0.308 µM
IC50 (SUDHL-4): 0.2 µM
IC50 (NECB-1): 1.66 µM
interaction with BO-1055 (REC-1): antagonistic against REC-1 in both combinations
interaction with BO-1055 (Z-138 [10]): synergistic with BO-1055 in both combinations
IC50 (U2932): 0.49 µM
IC50 (JEKO-1; JEKO-1, 72 hr (Table 27)): 0.31 µM
IC50 (JEKO-1; read-out: cytotoxicity IC50, JEKO-1, mantle cell lymphoma): 0.26 µM
IC50 (Granta-519): 1.22 µM
IC50 [11]: 0.24 µM
IC50 (Z-138 [12]): 0.06 µM
IC50 (Ly3 (OCI-LY3)): 2.78 µM
interaction with BO-1055 (Mino [13]): dually synergistic
IC50 (Toledo): 2.66 µM
IC50 (Mino [14]): 0.26 µM
IC50 (SUDHL-6): 0.05 µM
IC50 (Ly8): 0.81 µM
interaction with BO-1055 (Granta): dually antagonistic
interaction with BO-1055 (NECB1): synergistic with BO-1055 against NECB1 in combo-1 and antagonistic in combo-2
IC50 (HBL1): 1.67 µM
